Source: BindingDB's records for PubMed 7908055 (Case Western Reserve University, 1994)

What was measured:
[1] = target: 5-hydroxytryptamine receptor 2A (Rattus norvegicus, UniProt P14842)
D(2) dopamine receptor = D(2) dopamine receptor (Rattus norvegicus, UniProt P61169)
[2] = target: T1, 5-hydroxytryptamine receptor 2C (Rattus norvegicus, UniProt P08909)
T1 sequence (P08909 whole entry): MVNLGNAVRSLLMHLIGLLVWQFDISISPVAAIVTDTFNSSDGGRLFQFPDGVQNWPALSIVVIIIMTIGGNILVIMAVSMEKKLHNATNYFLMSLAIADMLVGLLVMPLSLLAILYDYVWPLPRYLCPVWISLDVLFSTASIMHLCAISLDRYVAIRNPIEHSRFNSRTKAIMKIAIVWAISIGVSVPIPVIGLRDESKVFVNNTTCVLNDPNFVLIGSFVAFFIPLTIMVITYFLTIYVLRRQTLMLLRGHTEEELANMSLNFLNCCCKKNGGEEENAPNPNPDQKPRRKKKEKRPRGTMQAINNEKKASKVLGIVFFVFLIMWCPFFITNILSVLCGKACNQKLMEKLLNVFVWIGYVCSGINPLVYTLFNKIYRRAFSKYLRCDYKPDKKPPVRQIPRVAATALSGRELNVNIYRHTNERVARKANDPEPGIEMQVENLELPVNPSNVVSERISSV

D(2) dopamine receptor, sequence (P61169 whole entry): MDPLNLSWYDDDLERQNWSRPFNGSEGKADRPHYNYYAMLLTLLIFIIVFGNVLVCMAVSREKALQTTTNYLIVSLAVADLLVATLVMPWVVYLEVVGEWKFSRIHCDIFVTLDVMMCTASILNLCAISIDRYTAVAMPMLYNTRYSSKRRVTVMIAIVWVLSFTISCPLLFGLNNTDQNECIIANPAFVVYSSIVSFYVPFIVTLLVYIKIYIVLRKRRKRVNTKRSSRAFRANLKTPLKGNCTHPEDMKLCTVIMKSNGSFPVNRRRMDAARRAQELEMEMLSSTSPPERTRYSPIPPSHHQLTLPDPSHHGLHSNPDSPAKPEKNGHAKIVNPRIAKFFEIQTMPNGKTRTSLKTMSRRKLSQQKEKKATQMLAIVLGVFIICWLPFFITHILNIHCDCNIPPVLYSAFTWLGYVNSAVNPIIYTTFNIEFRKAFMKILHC
5-hydroxytryptamine receptor 2A, sequence (P14842 whole entry): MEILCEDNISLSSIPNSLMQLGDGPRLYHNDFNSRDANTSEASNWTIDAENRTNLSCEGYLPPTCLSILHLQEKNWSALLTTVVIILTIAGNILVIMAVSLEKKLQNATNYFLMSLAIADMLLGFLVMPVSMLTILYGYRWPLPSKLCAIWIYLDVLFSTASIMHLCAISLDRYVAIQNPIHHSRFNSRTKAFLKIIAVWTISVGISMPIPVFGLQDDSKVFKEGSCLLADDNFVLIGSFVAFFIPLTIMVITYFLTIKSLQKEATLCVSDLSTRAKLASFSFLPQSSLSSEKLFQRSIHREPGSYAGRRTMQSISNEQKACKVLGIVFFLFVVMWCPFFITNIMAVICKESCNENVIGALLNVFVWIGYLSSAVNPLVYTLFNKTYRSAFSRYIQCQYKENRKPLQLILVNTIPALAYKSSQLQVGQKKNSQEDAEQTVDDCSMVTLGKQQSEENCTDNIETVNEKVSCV

## OCCN1CCN(CCCN2c3ccccc3Sc3ccc(Cl)cc32)CC1 [4-[3-(2-chlorophenothiazin-10-yl)propyl]-1-piperazineethanol]
[1]
  Ki: 2.51 nM
D(2) dopamine receptor
  Ki: 0.63 nM
[2]
  Ki: 50.1 nM

## CCc1c(C)[nH]c2c1C(=O)C(CN1CCOCC1)CC2 (stereo unspecified) [Moban]
[1]
  Ki: 501 nM
D(2) dopamine receptor
  Ki: 15.8 nM

## CN1CCN(C2=Nc3ccccc3Oc3ccc(Cl)cc32)CC1 [13-chloro-10-(4-methylpiperazin-1-yl)-2-oxa-9-azatricyclo[9.4.0.0^{3,8}]pentadeca-1(11),3,5,7,9,12,14-heptaene]
D(2) dopamine receptor
  Ki: 7.94 nM

## CN1CCN(CC/C=C2/c3ccccc3Sc3ccc(S(=O)(=O)N(C)C)cc32)CC1 [MLS000028463]
D(2) dopamine receptor
  Ki: 0.63 nM
[2]
  Ki: 1580 nM

## CN1CCN(C2=Cc3cc(Cl)ccc3C(=CC#N)c3ccccc32)CC1 [CAS_79781-95-6]
[1]
  Ki: 0.63 nM
D(2) dopamine receptor
  Ki: 39.8 nM
[2]
  Ki: 25.1 nM

## CN1CCN(C2=Nc3ccccc3Sc3ccc(Cl)cc32)CC1 [2-chloro-11-(4-methylpiperazin-1-yl)dibenzo[b,f][1,4]thiazepine]
[1]
  Ki: 0.79 nM

## CC1CCN(CCCC(=O)c2ccc(F)cc2)CC1 [CAS_3575-80-2]
D(2) dopamine receptor
  Ki: 200 nM
[2]
  Ki: 1260 nM

## CCNC(=O)N1CCN(CCCC(c2ccc(F)cc2)c2ccc(F)cc2)CC1
[1]
  Ki: 12.6 nM
D(2) dopamine receptor
  Ki: 501 nM
[2]
  Ki: 1260 nM

## CC(=O)c1ccc2c(c1)N(CCCN1CCN(CCO)CC1)c1ccccc1S2 [CAS_5714-00-1]
[2]
  Ki: 1000 nM

## CN1CCN(CCCN2c3ccccc3Sc3ccc(Cl)cc32)CC1 [2-chloro-10-[3-(4-methylpiperazin-1-yl)propyl]phenothiazine;ethane-1,2-disulfonic acid]
[1]
  Ki: 6.3 nM
[2]
  Ki: 79.4 nM

## CCN1CCC[C@H]1CNC(=O)c1c(O)c(Cl)cc(Cl)c1OC [3,5-Dichloro-N-(1-ethyl-pyrrolidin-2-ylmethyl)-2-hydroxy-6-methoxy-benzamide (raclopride)]
[1]
  Ki: 5010 nM
[2]
  Ki: 5010 nM

## CN1CCN(C2=Nc3cscc3C(=CC#N)c3cscc32)CC1 [NSC_3086153]
D(2) dopamine receptor
  Ki: 1580 nM
[2]
  Ki: 63.1 nM

## CN1CCCCC1CCN1c2ccccc2Sc2ccc([S+](C)[O-])cc21 (stereo unspecified)
D(2) dopamine receptor
  Ki: 7.94 nM

## CN(C)CC/C=C1\c2ccccc2Sc2ccc(Cl)cc21
[1]
  Ki: 0.39 nM

## O=c1[nH]c2ccccc2n1C1CCN(CCCC(c2ccc(F)cc2)c2ccc(F)cc2)CC1 [1-(1-(4,4-bis(4-fluorophenyl)butyl)piperidin-4-yl)-1H-benzo[d]imidazol-2(3H)-one]
[2]
  Ki: > 10000 nM

## CN1CCN(C2=Nc3cc(F)ccc3Cc3ccccc32)CC1
[1]
  Ki: 6.3 nM
D(2) dopamine receptor
  Ki: 316 nM
[2]
  Ki: 19.9 nM

## O=C1CC2(CCCC2)CC(=O)N1CCCCN1CCN(c2nsc3ccccc23)CC1 [TIOSPERONE]
D(2) dopamine receptor
  Ki: 0.5 nM
[2]
  Ki: 10 nM

## CN1CCN(C2=Nc3ccccc3Cc3ccccc32)CC1
[1]
  Ki: 12.6 nM
D(2) dopamine receptor
  Ki: 501 nM

## CC1CN(CCCn2c3ccccc3c3ccccc32)CC(C)N1 (stereo unspecified) [9-[3-(3,5-dimethylpiperazin-1-yl)propyl]-9H-carbazole]
[1]
  Ki: 5010 nM

## OC1(c2ccc(Cl)c(C(F)(F)F)c2)CCN(CCCC(c2ccc(F)cc2)c2ccc(F)cc2)CC1 [Penfluridol]
[1]
  Ki: 63.1 nM
